Columns and labels:
[1] = test system: human skin scarring model; test: Scar thickness by H+E stain; assay type: in vivo; conditions: weeks 4 and 8, Groups 1, 2 and 4
Protocol: (§1) A double-blind randomized placebo-controlled trial was conducted using a temporal punch-biopsy model. The punch biopsy and topical application methodology used in the study is illustrated in FIG. 1, namely showing pre-injury pre-emptive priming (7-days), pre-injury pre-emptive priming (3-days), day of injury (immediate application on day 0), post-injury (delayed 2 weeks post injury) including biopsy time points and time of topical applications. Each group applied both placebo and topical formulations twice daily for the duration of the study until week 8, with only the starting time point differing between groups Participants were split into 4 groups (n=10 in each group) in order to compare different modes (timings) of commencement of the topical application: • Group-1: Pre-emptive Priming (7-days): pre-injury • Group-2: Pre-emptive Priming (3-days): pre-injury • Group-3: Immediate (0-day): day-of-injury • Group-4: Delayed (14-days): post-injury Clinical quantitative devices were used to objectively monitor cutaneous healing at weekly intervals and punch biopsies were performed on day 0 (uninjured skin) and at weeks 4 and 8 for protein and gene expression analyses. […] Excisional skin biopsies in upper arms were evaluated weekly with multiple quantitative devices over an 8-week period. […]

HBB, HBA1, HBA2 = test: mRNA sequencing of scar biopsies; assay type: in vivo, human; conditions: group-1, week 4
Protocol: as §1

Hemeoxygenase-1 (HO-1) = test: HO-1 immunohistochemical marker (anti-oxidant effect); assay type: in vivo, human; conditions: week 4, all groups, p<0.01
Protocol: as §1

## O=C(OC1Cc2c(O)cc(O)cc2OC1c1cc(O)c(O)c(O)c1)c1cc(O)c(O)c(O)c1 (single isomer, unassigned; (-)) [EGCG, (-)-epigallocatechin-3-gallate]
[1]
  Scar thickness by H+E stain with EGCG: reduced scar thickness
HBB, HBA1, HBA2
  mRNA sequencing: HBB, HBA1 and HBA2 expression with EGCG compared to placebo: reduced
Hemeoxygenase-1 (HO-1)
  HO-1 levels, EGCG-treated samples compared to placebo: significantly higher

— patent US12691092B2, “Method for reducing cutaneous skin scarring by pre-emptive priming and compounds and compositions for its implementation” (SOS SCIENCE OF SKIN LTD, priority 2020, dated 2026)
